In patent publication US12403144B2, “HECT E3 ligase inhibitors and uses thereof” (IFOM FONDAZIONE ISTITUTO FIRC DI ONCOLOGIA MOLECOLARE, priority 2019, dated 2025):

Molecular target: T1, HECT of NEDD4 L553F (Homo sapiens, UniProt P46934, L972F)
T1 construct: 250 nM untagged HECT of NEDD4 WT or NEDD4 L553F or NEDD4L WT; made in house
T1 sequence (P46934 519-900 isoform P46934-4 L553F limits assumed): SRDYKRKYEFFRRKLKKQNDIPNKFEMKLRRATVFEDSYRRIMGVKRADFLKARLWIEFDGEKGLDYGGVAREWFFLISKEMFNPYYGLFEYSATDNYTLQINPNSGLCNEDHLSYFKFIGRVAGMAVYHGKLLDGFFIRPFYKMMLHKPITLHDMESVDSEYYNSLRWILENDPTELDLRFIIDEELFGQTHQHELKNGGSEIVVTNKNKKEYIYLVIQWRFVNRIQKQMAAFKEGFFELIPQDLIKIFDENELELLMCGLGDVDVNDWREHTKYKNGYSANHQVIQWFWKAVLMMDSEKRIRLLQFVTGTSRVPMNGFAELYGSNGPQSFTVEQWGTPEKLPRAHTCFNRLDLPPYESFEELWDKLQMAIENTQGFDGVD
Assay: In vitro ubiquitination assay detected by western blot, HECT NEDD4 L553F mutant
Assay type: biochemical
Details: 10 μM; FIG. 4c
Description: In vitro ubiquitination assay performed with HECT NEDD4 WT and HECT NEDD4L WT in presence of the indicated compounds at 10 μM concentration. The symbol “−” indicates the DMSO-treated sample. Reactions were stopped after 1 hour with Laemmli buffer. […] HECT of NEDD4 bound to compound 12 is shown in light grey, superposed with the structure of HECT of NEDD4L (pdb entry 2oni, version 1.2, 13 Jul. 2011, shown in dark grey). c. In vitro ubiquitination assay using the HECT of NEDD4 WT (HECT WT) and L553F (HECT L553F) was performed in presence of compound 12 at 10 μM concentration. The symbol “-” indicates the DMSO-treated sample. Immunoblot was performed with the anti-ubiquitin antibody (upper panel).
An in vitro ubiquitination assay followed by western blot detection was used to determine the selectivity of the different compounds. The full protocol is described in (E. Maspero et al. Methods Mol Biol. 1449:153-60 (2016)). Briefly, the assay was performed with bacterially purified enzymes (20 nM E1, 250 nM of purified His6-tagged UBE2D3 and 250 nM untagged HECT of NEDD4 WT or NEDD4 L553F or NEDD4L WT) and 1 μM of untagged ubiquitin in ubiquitination buffer (25 mM Tris-HCl, pH 7.6, 5 mM MgCl2, 100 mM NaCl, 0.2 μM DTT). […] The binding pocket determined by X-ray is highly conserved among the various members of the NEDD4 family with few important exceptions. […]

## CCOC(=O)/C=C/CNCCCCN1c2ccccc2CCc2ccc(Cl)cc21.O=C(O)/C=C\C(=O)O [Compound 12, Ethyl (E)-4-[4-(3-chloro-10,11-dihydro-5H-dibenzo[b,f]azepin-5-yl)butylamino]but-2-enoate maleate]
  activity of compound on HECT NEDD4 L553F mutant (anti-ubiquitin immunoblot): fully abrogate the activity
